From PubChem BioAssay AID256 (DTP/NCI, 2004) come the findings set out here.

This assay concerns CD2F1 mice, L1210 leukemia ip, survival T/C. The assay can be described thus: NCI In Vivo Anticancer Drug Screen. Data for tumor model L1210 Leukemia (intraperitoneal) in CD2F1 (CDF1) mice. Particulars: higher = longer survival. In a few lines:
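Ratio T/C, where T is the treated-group value and C the vehicle-dosed control value, from mice implanted with a transplantable tumor.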

Setting [1] is: endpoint: mean survival time, dose: 100.0 mg/kg/injection, schedule: Q04DX003 (ip), vehicle: Klucel (hydroxypropylcellulose) (HPC).
Setting [2] is: endpoint: mean survival time, dose: 200.0 mg/kg/injection, schedule: Q04DX003 (ip), vehicle: Klucel (hydroxypropylcellulose) (HPC).
Setting [3] is: endpoint: mean survival time, dose: 400.0 mg/kg/injection, schedule: Q04DX003 (ip), vehicle: Klucel (hydroxypropylcellulose) (HPC).
Where [4] appears, read: endpoint: mean survival time, dose: 100.0 mg/kg/injection, schedule: Q01DX001 (ip), vehicle: saline with Tween-80.
Setting [5] is: endpoint: mean survival time, dose: 200.0 mg/kg/injection, schedule: Q01DX001 (ip), vehicle: saline with Tween-80.
The mark [6] stands for this setting: endpoint: mean survival time, dose: 12.5 mg/kg/injection, schedule: Q01DX009 (ip), vehicle: Klucel (hydroxypropylcellulose) (HPC).
The mark [7] stands for this setting: endpoint: mean survival time, dose: 25.0 mg/kg/injection, schedule: Q01DX009 (ip), vehicle: Klucel (hydroxypropylcellulose) (HPC).
Where [8] appears, read: endpoint: mean survival time, dose: 12.5 mg/kg/injection, schedule: Q01DX009 (ip), vehicle: saline with Tween-80.
Where [9] appears, read: endpoint: mean survival time, dose: 25.0 mg/kg/injection, schedule: Q01DX009 (ip), vehicle: saline with Tween-80.
Where [10] appears, read: endpoint: mean survival time, dose: 100.0 mg/kg/injection, schedule: Q04DX003 (ip), vehicle: saline with Tween-80.
[11] abbreviates: endpoint: mean survival time, dose: 200.0 mg/kg/injection, schedule: Q04DX003 (ip), vehicle: saline with Tween-80.
[12] abbreviates: endpoint: mean survival time, dose: 400.0 mg/kg/injection, schedule: Q04DX003 (ip), vehicle: saline with Tween-80.
The mark [13] stands for this setting: endpoint: mean survival time, dose: 50.0 mg/kg/injection, schedule: Q01DX009 (ip), vehicle: saline.
Where [14] appears, read: endpoint: mean survival time, dose: 100.0 mg/kg/injection, schedule: Q01DX009 (ip), vehicle: saline.

Where “and” joins values, the source holds several entries; their conditions need not be identical. Identical values can stand only once. Inconclusive results and toxic doses are left out.

In the case of `CO[C@]12[C@@H](COC(N)=O)C3=C(C(=O)C(C)=C(NCc4ccco4)C3=O)N1C[C@@H]1[C@H]2N1C` (some centres undefined), the T/C (endpoint: mean survival time, dose: 1.5 mg/kg/injection, schedule: Q01DX001 (ip), vehicle: distilled water + Tween-80) was 104 % of control; the T/C (endpoint: mean survival time, dose: 3.0 mg/kg/injection, schedule: Q01DX001 (ip), vehicle: distilled water + Tween-80) is 103 % of control and 104 % of control; the T/C (endpoint: mean survival time, dose: 6.0 mg/kg/injection, schedule: Q01DX001 (ip), vehicle: distilled water + Tween-80) was 110 % of control and 111 % of control; the T/C (endpoint: mean survival time, dose: 12.0 mg/kg/injection, schedule: Q01DX001 (ip), vehicle: distilled water + Tween-80) was 122 % of control; the T/C (endpoint: mean survival time, dose: 36.0 mg/kg/injection, schedule: Q01DX001 (ip), vehicle: distilled water + Tween-80) was 121 % of control.
For the molecule `CCCCOC(=O)c1ccc(Cl)c(Cl)c1`, the T/C runs as follows: under setting [1], 92 % of control; under setting [2], 96 % of control; under setting [3], 103 % of control.
Take `NC(=O)c1cn(C2OC(CO)C(O)C2O)nc1N` (centres undefined): the T/C runs as follows: (endpoint: mean survival time, dose: 100.0 mg/kg/injection, schedule: Q01DX005 (ip), vehicle: saline) 100 % of control; (endpoint: mean survival time, dose: 200.0 mg/kg/injection, schedule: Q01DX005 (ip), vehicle: saline) 105 % of control.
Consider `C[S+]1C=C(c2ccccc2)C=C(c2ccccc2)C1` (centres undefined), for which the T/C (endpoint: mean survival time, dose: 7.5 mg/kg/injection, schedule: Q01DX001 (ip), vehicle: saline with Tween-80) was 114 % of control.
With `CN(C(=O)CCC(=O)N(C)c1ccccc1)c1ccccc1`, the T/C was 103 % of control under setting [4]; 92 % of control under setting [5]; 92 % of control (endpoint: mean survival time, dose: 400.0 mg/kg/injection, schedule: Q01DX001 (ip), vehicle: saline with Tween-80).
On to `[Cl][Pt+2][Cl].[NH-]c1cc(Cl)c(Cl)cc1[NH-]`, for which the T/C by setting is: (endpoint: mean survival time, dose: 2.5 mg/kg/injection, schedule: Q01DX009 (ip), vehicle: saline with Tween-80) 107 % of control; (endpoint: mean survival time, dose: 5.0 mg/kg/injection, schedule: Q01DX009 (ip), vehicle: saline with Tween-80) 105 % of control; (endpoint: mean survival time, dose: 10.0 mg/kg/injection, schedule: Q01DX009 (ip), vehicle: saline with Tween-80) 111 % of control; (endpoint: mean survival time, dose: 20.0 mg/kg/injection, schedule: Q01DX009 (ip), vehicle: saline with Tween-80) 106 % of control and 112 % of control; (endpoint: mean survival time, dose: 40.0 mg/kg/injection, schedule: Q01DX009 (ip), vehicle: saline with Tween-80) 105 % of control and 112 % of control; (endpoint: mean survival time, dose: 80.0 mg/kg/injection, schedule: Q01DX009 (ip), vehicle: saline with Tween-80) 110 % of control. Moreover, the T/C by setting is: (endpoint: mean survival time, dose: 160.0 mg/kg/injection, schedule: Q01DX009 (ip), vehicle: saline with Tween-80) 104 % of control; (endpoint: mean survival time, dose: 320.0 mg/kg/injection, schedule: Q01DX009 (ip), vehicle: saline with Tween-80) 107 % of control.
Consider `CN1C2CCC1C(CO)C(O)C2` (centres undefined), for which the T/C runs as follows: (endpoint: mean survival time, dose: 100.0 mg/kg/injection, schedule: Q04DX002 (ip), vehicle: saline) 105 % of control; (endpoint: mean survival time, dose: 200.0 mg/kg/injection, schedule: Q04DX002 (ip), vehicle: saline) 94 % of control; (endpoint: mean survival time, dose: 400.0 mg/kg/injection, schedule: Q04DX002 (ip), vehicle: saline) 97 % of control.
Regarding `CNC(=O)OCc1c(COC(=O)NC)c(C)n(-c2ccccc2)c1C`, the T/C reads like this: (endpoint: mean survival time, dose: 6.25 mg/kg/injection, schedule: Q01DX009 (ip), vehicle: Klucel (hydroxypropylcellulose) (HPC)) 109 % of control; under setting [6], 106 % of control; under setting [7], 104 % of control.
Turning to `C[N+](C)(C)/N=C\c1cccc2ccccc12`, the T/C reads like this: (endpoint: mean survival time, dose: 6.25 mg/kg/injection, schedule: Q01DX009 (ip), vehicle: saline with Tween-80) 111 % of control; under setting [8], 107 % of control; under setting [9], 104 % of control.
With `COc1cc2c(cc1OC)C(NC=O)CCC2` (centres undefined), the T/C is 102 % of control (endpoint: mean survival time, dose: 12.5 mg/kg/injection, schedule: Q01DX009 (ip), vehicle: water); 102 % of control (endpoint: mean survival time, dose: 25.0 mg/kg/injection, schedule: Q01DX009 (ip), vehicle: water); 102 % of control (endpoint: mean survival time, dose: 50.0 mg/kg/injection, schedule: Q01DX009 (ip), vehicle: water); 100 % of control (endpoint: mean survival time, dose: 100.0 mg/kg/injection, schedule: Q01DX009 (ip), vehicle: water); 104 % of control (endpoint: mean survival time, dose: 200.0 mg/kg/injection, schedule: Q01DX009 (ip), vehicle: water).
Regarding `O=C(O)/C=C/C(=O)NCc1ccco1`, the T/C by setting is: under setting [10], 94 % of control; under setting [11], 94 % of control; under setting [12], 94 % of control.
Consider `CCOC(=O)c1cc(OC(C)=O)c2c(ccc3ccccc32)c1C`, for which the T/C is, setting by setting: under setting [1], 101 % of control; under setting [2], 104 % of control; under setting [3], 97 % of control.
As to `CCCCCCCCCCCCCCCC[N+]1(CCC)CCSCC1`, the T/C is, setting by setting: under setting [4], 102 % of control; under setting [5], 110 % of control.
`CC(C)CC(NC(=O)CF)C(=O)O` (centres undefined): the T/C (endpoint: mean survival time, dose: 0.31 mg/kg/injection, schedule: Q01DX009 (ip), vehicle: saline) is 98 % of control and 108 % of control; the T/C (endpoint: mean survival time, dose: 0.62 mg/kg/injection, schedule: Q01DX009 (ip), vehicle: saline) is 98 % of control; the T/C (endpoint: mean survival time, dose: 0.63 mg/kg/injection, schedule: Q01DX009 (ip), vehicle: saline) is 111 % of control; the T/C (endpoint: mean survival time, dose: 1.25 mg/kg/injection, schedule: Q01DX009 (ip), vehicle: saline) was 98 % of control and 106 % of control; the T/C (endpoint: mean survival time, dose: 2.5 mg/kg/injection, schedule: Q01DX009 (ip), vehicle: saline) is 98 % of control and 100 % of control; the T/C (endpoint: mean survival time, dose: 5.0 mg/kg/injection, schedule: Q01DX009 (ip), vehicle: saline) is 98 % of control and 110 % of control.
For the molecule `COc1c(CNC(=O)CCl)cc2[nH]c(C)cc2c1CNC(=O)CCl`, the T/C was 98 % of control under setting [6]; 98 % of control and 101 % of control under setting [7]; 98 % of control and 103 % of control (endpoint: mean survival time, dose: 50.0 mg/kg/injection, schedule: Q01DX009 (ip), vehicle: Klucel (hydroxypropylcellulose) (HPC)); 97 % of control and 102 % of control (endpoint: mean survival time, dose: 100.0 mg/kg/injection, schedule: Q01DX009 (ip), vehicle: Klucel (hydroxypropylcellulose) (HPC)); 93 % of control and 104 % of control (endpoint: mean survival time, dose: 200.0 mg/kg/injection, schedule: Q01DX009 (ip), vehicle: Klucel (hydroxypropylcellulose) (HPC)); 95 % of control (endpoint: mean survival time, dose: 400.0 mg/kg/injection, schedule: Q01DX009 (ip), vehicle: Klucel (hydroxypropylcellulose) (HPC)).
In the case of `ClC/C(=N\N1CCCCCC1)c1ccccc1`, the T/C was 103 % of control (endpoint: mean survival time, dose: 100.0 mg/kg/injection, schedule: Q01DX001 (ip), vehicle: saline); 103 % of control (endpoint: mean survival time, dose: 200.0 mg/kg/injection, schedule: Q01DX001 (ip), vehicle: saline); 102 % of control (endpoint: mean survival time, dose: 400.0 mg/kg/injection, schedule: Q01DX001 (ip), vehicle: saline).
Take `OC(c1ccccc1)(c1ccccc1)c1ccncc1`: the T/C by setting is: under setting [8], 91 % of control; under setting [9], 87 % of control; (endpoint: mean survival time, dose: 50.0 mg/kg/injection, schedule: Q01DX009 (ip), vehicle: saline with Tween-80) 91 % of control.
`N=C(N)SC1c2ccccc2-c2ccc(N)cc21` (centres undefined): the T/C (endpoint: mean survival time, dose: 25.0 mg/kg/injection, schedule: Q01DX009 (ip), vehicle: saline) is 107 % of control; the T/C under setting [13] was 102 % of control; the T/C under setting [14] is 109 % of control; the T/C under setting [10] is 103 % of control.
Consider `Cc1cc(-c2ccc(N=Nc3c(N)ccc4cc(S(=O)(=O)O)ccc34)c(C)c2)ccc1N=Nc1c(N)ccc2cc(S(=O)(=O)O)ccc12`, for which the T/C by setting is: under setting [13], 101 % of control; under setting [14], 101 % of control.
For `CC[C@@]1(O)C(=O)OCc2c1cc1n(c2=O)Cc2cc3c(CN(C)C)c(O)ccc3nc2-1`, the T/C is 119 % of control (endpoint: median survival time, dose: 5.0 mg/kg/injection, schedule: Q04DX002 (ip), vehicle: water); 183 % of control (endpoint: median survival time, dose: 20.0 mg/kg/injection, schedule: Q04DX002 (ip), vehicle: water); 264 % of control (endpoint: median survival time, dose: 40.0 mg/kg/injection, schedule: Q04DX002 (ip), vehicle: water).
Turning to `Cc1c(Cl)c(C)c(Cl)c(C)c1Cl`, the T/C is 101 % of control under setting [10], 96 % of control under setting [11] and 101 % of control under setting [12].
